# Test results published in US6194465A, “Benzamide therapeutics for the treatment of inflammatory bowel disease” (priority 1999, dated 2001).
# Entries after “also recorded” stand apart in the source; their conditions may differ. Like-named read-outs stand apart in the source and are kept apart here.
# Assays:
# [1] = Absolute oral bioavailability (AUC oral vs IV, 20 mg/kg); format: in vivo, rats; conditions: rat, blood
# Procedure: Blood concentrations were determined at 0, 0.083, 0.15, 0.5, 1, 2, 4, 8, and 24 hours post-IV dose and 0, 0.5, 1, 2, 4 and 8 hours post-oral dose. Four animals were dosed orally and four animals were dosed intravenously.
# The blood samples were analyzed by HPLC. Detection was by UV at 262 nm. Responses were converted to concentrations by comparison to responses from calibration standards injected onto the column. The resulting concentrations were used to calculate the AUC.
# [2] = system: TNBS-induced colitis; assay: TNBS model of IBD, Compound A given before TNBS (morphology, tissue weight); format: in vivo, Male Sprague-Dawley rats
# Description: The trinitrobenzene sulphonic acid ("TNBS") model is one of the standard IBD models used in IBD discovery research, and has been extensively evaluated in rodents. A single enema of TNBS induces a prolonged colonic inflammatory response (up to several weeks) that is transmural and is accompanied by oxidative damage as evidenced by an increase in myeloperoxidase ("MPO") activity. Furthermore, the inflammation is characterized by discrete areas of acute necrosis, inflammation and muscle thickening. Agents with anti-inflammatory effects in patients with IBD show efficacy in this model. Although the mechanism by which TNBS induces an inflammatory response is unknown, it is thought to have an immunological basis.
# Male Sprague-Dawley rats (200-250 g) were housed in standard cages (2 per cage) and fed rat chow and tap water ad libitum. After an overnight fast, rats were brought into the laboratory and randomized into treatment groups. Colitis was induced by intrarectal administration of 0.5 ml of TNBS solution (50 mg/kg in 50% ethanol) using a 1 ml syringe attached to a 5 cm polyethylene catheter. Control animals received saline (0.9%) or a 1 % methyl cellulose suspension at identical time points.
# Three days after TNBS administration, the rats were sacrificed and the colons excised and opened longitudinally.
# The weights of each 5 cm colonic segment were also recorded to assess inflammatory induced edema.
# For PO (oral) dosing, Compound A was administered by oral gavage 30 mg/kg as a 1% carboxy methyl cellulose ("CMC") suspension 1 hour prior to the administration of TNBS. Control rats were given CMC only. For IV (intravenous) dosing, Compound A was administered 30 mg/kg by tail vein injection in a 75% PEG/25 % water solution 1 hour prior to administration of TNBS. Control rats were given an injection of 75% PEG/25 % water only. Six rats were dosed for each route of administration.
# An additional study was conducted varying the amount of Compound A administered to the rats. Doses of 10 mg/kg, 30mg/kg, and 70 mg/kg were given by oral administration.
# A study was run to determine whether or not the effectiveness of Compound A was dependent upon when it was administered relative to the TNBS administration.
# Groups of rats (N=11/group) were administered increasing doses of Compound A (0-90 mg/kg-po) 1 hour prior to TNBS enema. In addition to macroscopic assessment, the wet weight of the tissue was also measured as an additional secondary efficacy parameter.
# [3] = system: TNBS-induced colonic tissue damage; assay: TNBS model, dosing after TNBS treatment (morphology, MPO, wet weight); format: in vivo, rats
# Procedure: As a follow-on set of experiments we investigated the effects of multiple doses of Compound A administered after TNBS treatment.
# Experimental conditions were similar to those described above except that rats were given either Compound A (30 mg/kg PO) or vehicle, administered 4, 8 and 24 hours after TNBS treatment for at total of 3 doses.
# In another series of experiments to investigate the duration of action of Compound A was designed to advance previous observations and determine whether a single dose of 90 mg/kg po Compound A given either 4, 8, or 24 hrs after the TNBS enema would reduce the colonic damage.
# Experimental conditions were similar to those described above except that rats were given a single large dose of Compound A (90 mg/kg PO) or vehicle either 4, 8 or 24 hours after TNBS treatment.
# [4] = system: human brain cell aggregates; assay: TNF-α induced apoptosis in human brain cell aggregates; format: cell-based; conditions: compound 1 hour prior to TNF-α, 48 h, read-out: lowest concentration shown to protect against TNF-α induced apoptosis
# Procedure: This test is used to evaluate the potential of Compound A to prevent TNF-α induced apoptosis.
# Compound A was evaluated in an in vitro model of TNF-α induced toxicity (see Pulliam et al. J. Neurosci. Res. 21:521-530 (1998)). In this model, human brain cell aggregates from fetal tissue were treated with TNF-α which caused an apoptotic cell death. Brain cell aggregates prepared from 1 brain were incubated for 10-12 days before experimentation. Aggregates were weighed out (100 mg/flask) and aliquoted into 10 mL flasks. TNF-α was used at a concentration of 1 ng. Compound A was added 1 hour prior to the TNF-α. Experiments included untreated brain aggregates, TNF-α-treated brain aggregates, TNF-α-+test compound treated aggregates and test compound treated aggregates. After TNF-α was added, aggregates were incubated for an additional 48 h. After this time, brain aggregates were centrifuged for 5 min at 500 rpm. The supernatant was removed and the pellet was lysed for determination of programmed cell death. (Boeringer Mannheim Cell Death Kit ELISA).
# [5] = system: bcl-2; assay: TNF-α induced reduction in bcl-2 (ELISA); format: cell-based; conditions: Compound A 100 μM (printed 100 EM); TNF-α 0.3 or 3.0
# Procedure: Cytokine mediated apoptosis or programmed cell death is believed to be involved in a number of diseases including IBD. Reductions in bcl-2 are a major signal in initiation of the apoptotic cascade (see Jourd'heuil et al., J. Clin Gastroenterol. 25(Suppl):S61-S72 (1997)). The purpose of this study is to investigate the effects of Compound A on bcl-2 protein levels in a cellular model of cytokine mediated apoptosis.
# SK-N-MC cells (American Type Culture Collection, Rockville, Md.) were plated at 500,000 cells/plate and treated with retinoic acid ("RA") (5 μM) for 5 days. Following RA treatment, the cells were incubated with Compound A (100 μM) for 1 hour. Cells were then treated with increasing concentrations of TNF-α (0, 0.3 and 3 ng/mL) for 6 h. The cells were harvested and lysed and bcl-2 was measured in the lysate using an ELISA assay (Boehringer Manheim). Quantification of bcl-2 was based on a standard curve and results are expressed as units/mL of bcl-2 in the sample. Results represent mean ±SE for 3 separate cultures.
# [6] = 0-90 mg/kg po, 1 hour prior to TNBS
# [7] = 30 mg/kg PO at 4, 8 and 24 hours after TNBS
smiles,measurement,setting,value
"CC(=O)Nc1ccc(C(=O)NC(C)(C)C)cc1 [Compound A, N-tert-butyl-4-acetamidobenzamide]",bioavailability,"[1]; in rats, as restated, read-out: bioavailability",50%
same,bioavailability,"[1]; oral 20 mg/kg in 1% methyl cellulose vs IV 20 mg/kg in 75% PEG, read-out: absolute bioavailability",52%
same,colonic morphological score (in words),[2]; [6],dose-dependent reduction
same,wet weight of colonic segments (in words),[2]; [6],dose-dependent reduction
same,"protective effects, 10 mg/kg",[2]; 10 mg/kg oral,minimal protective effects
same,"severity of IBD symptoms / protection from TNBS damage, IV","[2]; 30 mg/kg IV, 1 hour before TNBS",decreases the severity of IBD symptoms; also recorded: protected from the damage induced by TNBS; also recorded: greater protection seen following IV administration; also recorded: intravenous administration of Compound A also provides protection
same,"protective effects, 30 mg/kg",[2]; 30 mg/kg oral,increased protective effects
same,"severity of IBD symptoms / protection from TNBS damage, PO","[2]; 30 mg/kg po, 1 hour before TNBS",decrease the severity of IBD symptoms; also recorded: protected from the damage induced by TNBS
same,"protection, administered 120 mins before TNBS","[2]; 30 mg/kg po, 120 mins pretreatment",less protective compared to the 60 min pretreatment period
same,"protective effects, 70 mg/kg",[2]; 70 mg/kg oral,strongest protective effect
same,"protection, administered 1 hour before TNBS",[2]; 1 hour (60 min) pretreatment,best protection
same,tissue weight (in words),"[2]; IV and PO, 30 mg/kg","suggest protection, but not as convincingly as the morphology and MPO activity results"
same,"activity in protecting colon tissue, summary (in words)",[2]; IV or PO,good activity in protecting colon tissue from damage
same,"protection, administered 240 mins before TNBS","[2]; single dose, 240 mins pretreatment",little protection against morphological changes
same,"MPO activity, 3 doses after TNBS (in words)",[3]; [7],decrease in MPO activity
same,"colonic tissue damage, 3 doses after TNBS",[3]; [7],significantly reduced
same,"tissue wet weight, 3 doses after TNBS (in words)",[3]; [7],reduction in tissue wet weight
same,"inflammatory damage, single dose after TNBS","[3]; 90 mg/kg po, 4, 8 or 24 hours after TNBS",prevents inflammatory damage; also recorded: less efficacy than the 3 dose (30 mg/kg) oral regimen
same,minimal effective concentration,[4],0.01 µM
same,bcl-2 reduction induced by TNF-α,[5],prevented bcl-2 reduction
